Measurements taken from US10738031B2, “N-[(heteroaryloxy)propanyl]heteroaryl carboxamides as antagonists of orexin subtype 1 receptor activity” (Boehringer Ingelheim International GmbH, priority 2016, dated 2020).

Assays:
[1] = Assay C: Human MST t1/2 (stability in human liver microsomes); type: in vitro ADME; settings: human liver microsomes
human orexin 2 receptor = molecular target: T1, human orexin 2 receptor (Homo sapiens, UniProt O43614); assay: Assay B: OX2R IP1 (in vitro OX2R potency); type: cell-based; settings: Table 3; 0.5 nM Orexin A concentration
T1 construct: stably expressing the full-length human orexin 2 receptor; expressed in transfected cells; host or cells: CHO-K1 (CHO-K1/hOX2), co-expressing aequorin
T1 sequence (O43614 1-444): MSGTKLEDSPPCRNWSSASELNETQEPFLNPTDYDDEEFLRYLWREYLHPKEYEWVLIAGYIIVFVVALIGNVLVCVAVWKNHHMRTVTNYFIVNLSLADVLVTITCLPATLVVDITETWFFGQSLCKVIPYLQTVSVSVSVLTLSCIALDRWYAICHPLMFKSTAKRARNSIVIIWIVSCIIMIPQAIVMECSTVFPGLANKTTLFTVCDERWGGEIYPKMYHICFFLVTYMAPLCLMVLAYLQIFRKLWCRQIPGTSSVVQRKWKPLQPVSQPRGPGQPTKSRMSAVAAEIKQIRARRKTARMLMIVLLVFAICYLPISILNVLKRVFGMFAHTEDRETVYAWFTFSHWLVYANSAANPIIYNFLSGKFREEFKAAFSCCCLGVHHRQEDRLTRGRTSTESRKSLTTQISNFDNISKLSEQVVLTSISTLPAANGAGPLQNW
Description: Activation of the orexin receptors expressed in cell lines results in an increase in intracellular IP3 concentration. IP1, a downstream metabolite of IP3, accumulates in cells following receptor activation and is stable in the presence of LiCl. Using Homogeneous Time-Resolved Fluorescence technology with Lumi4-Tb cryptate (commercially available from Cisbio Bioassay.) and a suitable fluorescence plate reader. This functional response is detectable and quantifiable as described in Trinquet et al. Anal. […] Curr. Chem. Genomics 2009, 3, 22-32. This technique is used to characterize pharmacological modification of the orexin receptors. B. In Vitro Testing of OX2R Potency: OX2R IP1 IP1 measurements are performed in CHO-K1 cells stably expressing the full-length human orexin 2 receptor and the aequorin photoprotein. Cells are cultivated in Ham's nutrient mixture F12 medium with 10% fetal calf serum, in a 37° C., 95% humidity and 5% CO2 incubator. The CHO-K1/hOX2 cell mass is expanded to larger cell numbers. The cells are obtained as frozen cells in cryo-vials and stored until use at -150° C. The viability of the cells after thawing is >90%. In preparation for the assay, 24 hours before the assay, the cells are thawed at 37° C. and immediately diluted with cell culture medium. After centrifugation, the cell pellet is resuspended in medium and then distributed into the assay plates with a density of 5000 cells/25 μL per well. The plates are incubated for one hour at room temperature to reduce edge effects before they are incubated for 24 hours at 37° C./5% CO2. […] On the day of the assay, cells in the plate are washed twice with 60 μL assay buffer (20 μL buffer remained in the wells after washing), followed by adding 5 μL per well of compounds diluted in assay buffer. […] The assay plate is incubated for 60 minutes at 37° C. Then 5 μL per well of Anti-IP1-Cryptate Tb solution and 5 μL per well of IP1-d2 dilution are added to all well of the plate and the plate is incubated for a further 60 minutes light protected at room temperature. […] The ratio between the emission at 665 nm and 615 is calculated by the reader. […] AssayExplorer (Accelrys). In order to establish an agonist concentration independent parameter, Kb values are calculated using the following equation: […] Sci. 1993, 14(4), 110-112).

human Orexin 1 receptor = molecular target: T2, human Orexin 1 receptor (Homo sapiens, UniProt O43613); assay: Assay A: OX1R IP1 (in vitro OX1R potency); type: cell-based; settings: for Kb: Table 3
T2 construct: stably expressing the full-length human Orexin 1 receptor; expressed in transfected cells; host or cells: CHO-K1 (CHO-K1/hOX1), co-expressing aequorin
T2 sequence (O43613 1-425): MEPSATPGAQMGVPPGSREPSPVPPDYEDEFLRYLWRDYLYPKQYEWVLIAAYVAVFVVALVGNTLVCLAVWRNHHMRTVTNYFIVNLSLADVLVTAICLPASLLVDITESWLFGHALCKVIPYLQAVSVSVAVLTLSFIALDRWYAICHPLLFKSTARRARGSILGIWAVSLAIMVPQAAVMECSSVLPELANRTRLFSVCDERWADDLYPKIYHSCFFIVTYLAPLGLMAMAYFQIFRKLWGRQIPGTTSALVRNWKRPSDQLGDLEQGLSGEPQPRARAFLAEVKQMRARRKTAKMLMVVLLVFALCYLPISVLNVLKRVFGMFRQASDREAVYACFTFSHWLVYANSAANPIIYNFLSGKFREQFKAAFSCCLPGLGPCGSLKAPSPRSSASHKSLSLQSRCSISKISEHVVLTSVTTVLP

Row | SMILES | half-life [1] | Kb (human orexin 2 receptor) | OX2R Kb/OX1R Kb (human Orexin 1 receptor) | Kb (human Orexin 1 receptor; Orexin A concentration 0.5 nM) | Kb (human Orexin 1 receptor; Orexin A concentration 50 nM)
1 | CC[C@@H](CNc1ccc(C(F)(F)F)cn1)N(CC)C(=O)c1nc(C)ccc1-n1nccn1 [Ex 71 in WO2016/ 034882, reference compound] | 4.5 min | 27 nM |  |  | 
2 | CCN(C(=O)c1cc(C(F)(F)F)cnc1-n1cccn1)[C@@H](C)COc1ccc(C(F)(F)F)cn1 [Example 3] | 83 min | 212 nM | 177 | 1.2 nM | 1.2 nM
3 | CCN(C(=O)c1nc(C)ccc1-n1nccn1)[C@@H](C)COc1ccc(C(F)(F)F)cn1 [Example 5] | 25 min | 59 nM | 393 |  | 0.15 nM
4 | CCN(C(=O)c1cc(F)cnc1-n1nccn1)[C@@H](C)COc1ccc(C(F)(F)F)cn1 [Example 6] | > 130 min | 844 nM |  | 1.2 nM | 1.5 nM
5 | CCN(C(=O)c1nc(C)ccc1-n1nccn1)[C@@H](C)COc1ccc(Cl)cn1 [Example 8] | 25 min | 71 nM | 158 |  | 0.45 nM
6 | CCN(C(=O)c1cnc(C)nc1-c1ccccc1)[C@@H](C)COc1cnc(C(F)(F)F)cn1 [Example 9] | > 130 min | 939 nM | 522 | 1.8 nM | 
7 | CCN(C(=O)c1nc(C)ccc1-n1nccn1)[C@@H](C)COc1cnc(C(F)(F)F)cn1 [Example 10] | > 130 min | 749 nM | 300 | 2.5 nM | 
8 | CCN(C(=O)c1cnc(C)nc1-c1ccccc1)[C@@H](C)COc1ncc(C(F)(F)F)cn1 [Example 11] | 88 min | 1290 nM | 860 | 1.5 nM | 
9 | CCN(C(=O)c1nc(C)ccc1-n1nccn1)[C@@H](C)COc1ncc(C(F)(F)F)cc1F [Example 12] | 13 min | 206 nM | 268 | 0.77 nM | 
10 | CCN(C(=O)c1ncccc1-c1ccccc1)[C@@H](C)COc1ncc(C(F)(F)F)cn1 [Example 15] | 96 min | 705 nM | 157 | 4.5 nM | 
11 | CCN(C(=O)c1ccc(C)nc1-n1nccn1)[C@@H](C)COc1ccc(C(F)(F)F)cn1 [Example 17] | 59 min | 356 nM | 1618 |  | 0.22 nM
12 | CCN(C(=O)c1ncc(C)cc1-c1ccn(C)n1)[C@@H](C)COc1ccc(C(F)(F)F)cn1 [Example 20] | 24 min | 415 nM | 1660 |  | 0.25 nM
13 | CCN(C(=O)c1cc(F)cnc1-n1nccn1)[C@@H](C)COc1ncc(C(F)(F)F)cc1F [Example 21] | > 130 min | 2700 nM | 817 | 3.3 nM | 
14 | CCN(C(=O)c1cc(F)cnc1-n1nccn1)[C@@H](C)COc1ccc(Cl)cn1 [Example 22] | 82 min | 1010 nM | 215 | 4.7 nM | 
15 | CCN(C(=O)c1nc(C)ccc1-n1nccn1)[C@@H](C)COc1ncc(C(F)(F)F)cn1 [Example 23] | 110 min | 2900 nM | 439 | 6.6 nM | 
16 | CCN(C(=O)c1c(F)cncc1-n1cccn1)[C@@H](C)COc1ccc(C(F)(F)F)cn1 [Example 24] | 29 min | 1070 nM | 167 | 6.4 nM | 
17 | CCN(C(=O)c1ncccc1-n1nccn1)[C@@H](C)COc1ccc(C(F)(F)F)cn1 [Example 26] | > 130 min | 267 nM | 281 | 0.95 nM | 

Row | SMILES | half-life [1] | Kb (human orexin 2 receptor) | OX2R Kb/OX1R Kb (human Orexin 1 receptor) | Kb (human Orexin 1 receptor; Orexin A concentration 0.5 nM) | Kb (human Orexin 1 receptor; Orexin A concentration 50 nM)
18 | CCN(C(=O)c1cc(C)cnc1-c1ccn(C)n1)[C@@H](C)COc1ccc(C(F)(F)F)cn1 [Example 27] | 31 min | 134 nM |  | 0.87 nM | 0.69 nM
19 | CCN(C(=O)c1ccc(C(F)(F)F)nc1-c1ccn(C)n1)[C@@H](C)COc1ccc(C(F)(F)F)cn1 [Example 28] | 11 min | 705 nM | 353 | 2 nM | 
20 | CCN(C(=O)c1ccncc1-c1ccn(C)n1)[C@@H](C)COc1ccc(C(F)(F)F)cn1 [Example 29] | 11 min | 1600 nM | 184 | 8.7 nM | 
21 | CCN(C(=O)c1ccc(C)nc1-n1nccn1)[C@@H](C)COc1ncc(C(F)(F)F)cn1 [Example 30] | > 130 min | 3590 nM | 641 | 5.6 nM | 
22 | CCN(C(=O)c1ccc(OC)nc1-c1ccn(C)n1)[C@@H](C)COc1ccc(C(F)(F)F)cn1 [Example 32] | 12 min | 106 nM | 707 |  | 0.15 nM
23 | CCN(C(=O)c1ccc(C)nc1-n1nccn1)[C@@H](C)COc1cnc(C(F)(F)F)cn1 [Example 33] | > 130 min | 3280 nM | 421 | 7.8 nM | 
24 | CCN(C(=O)c1ncccc1-c1ccn(C)n1)[C@@H](C)COc1ccc(C(F)(F)F)cn1 [Example 34] | 81 min | 285 nM | 190 | 1.5 nM | 
25 | CCN(C(=O)c1cc(F)cnc1-c1ncccn1)[C@@H](C)COc1ncc(C(F)(F)F)cc1F [Example 35] | > 130 min | 3250 nM | 706 | 4.6 nM | 
26 | CCN(C(=O)c1cnccc1-n1nccn1)[C@@H](C)COc1ccc(C(F)(F)F)cn1 [Example 36] | 15 min | 240 nM | 240 | 1 nM | 
27 | CCN(C(=O)c1ncc(F)cc1-c1ccn(C)n1)[C@@H](C)COc1ccc(C(F)(F)F)cn1 [Example 37] | 24 min | 802 nM | 243 | 3.3 nM | 
28 | CCN(C(=O)c1cc(OC)ncc1-c1ccn(C)n1)[C@@H](C)COc1ccc(C(F)(F)F)cn1 [Example 38] | 12 min | 323 nM | 135 | 2.4 nM | 
29 | CCN(C(=O)c1ccncc1-n1cccn1)[C@@H](C)COc1ccc(C(F)(F)F)cn1 [Example 40] | 10 min | 1560 nM | 120 | 13 nM | 
30 | CCN(C(=O)c1cnccc1-n1nccn1)[C@@H](C)COc1ncc(C(F)(F)F)cc1F [Example 42] | 13 min | 483 nM | 210 | 2.3 nM | 
31 | CCN(C(=O)c1cc(OC)cnc1-n1nccn1)[C@@H](C)COc1ccc(Cl)cn1 [Example 43] | 110 min | 325 nM | 171 | 1.9 nM | 
32 | CCN(C(=O)c1cccnc1-n1nccn1)[C@@H](C)COc1ncc(C(F)(F)F)cc1F [Example 44] | > 130 min | 1210 nM | 289 | 4.2 nM | 
33 | CCN(C(=O)c1cc(F)cnc1-c1ncccn1)[C@@H](C)COc1cnc(C(F)(F)F)cn1 [Example 45] | > 130 min | 6650 nM | 332 | 20 nM | 
